In ChEMBL document CHEMBL1201862, “PubChem BioAssay data set” (2004):
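A five-concentration, 48-hour dose response in 96-well plates underlies each endpoint, interpolated linearly between surrounding concentrations. GI50: concentration for 50% inhibition of growth.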 The source made the active and inactive calls. No stated cut-off is given here; in the data, active = GI50 up to about 1.1 µM and inactive = higher.

Legend:
Assay in all cases: growth of human tumour cells (NCI), 48 h
A498 = system: A498
CCRF-CEM = system: CCRF-CEM
EKVX = system: EKVX
HCC 2998 = system: HCC 2998
HOP-62 = system: HOP-62
HOP-92 = system: HOP-92
HT-29 = system: HT-29
KM12 = system: KM12
M14 = system: M14
Malme-3M = system: Malme-3M
NCI-H522 = system: NCI-H522
OVCAR-8 = system: OVCAR-8
RPMI-8226 = system: RPMI-8226
SK-MEL-2 = system: SK-MEL-2
UACC-62 = system: UACC-62
SNB-75 = system: SNB-75
MCF7 = system: MCF7
MDA-MB-231 = system: MDA-MB-231
T47D = system: T47D
DU-145 = system: DU-145

SMILES | GI50 (A498) | GI50 (CCRF-CEM) | GI50 (EKVX) | GI50 (HCC 2998) | GI50 (HOP-62) | GI50 (HOP-92) | GI50 (HT-29) | GI50 (KM12) | GI50 (M14) | GI50 (Malme-3M) | GI50 (NCI-H522) | GI50 (OVCAR-8) | GI50 (RPMI-8226) | GI50 (SK-MEL-2) | GI50 (UACC-62) | GI50 (SNB-75) | GI50 (MCF7) | GI50 (MDA-MB-231) | GI50 (T47D) | GI50 (DU-145)
CCOC(=O)C12CCCC1(O)N(NC(=O)OC)C(C)=C2C(=O)OC (configuration not stated) | > 100 µM (inactive) | > 100 µM (inactive) | > 100 µM (inactive) | > 100 µM (inactive) | > 100 µM (inactive) | > 100 µM (inactive) | > 100 µM (inactive) | > 10 µM (inactive) | > 100 µM (inactive) | > 100 µM (inactive) | > 100 µM (inactive) | > 100 µM (inactive) | > 100 µM (inactive) | 14.1 µM (inactive) | > 100 µM (inactive) | – | – | – | – | –
CC(=O)/C=C/c1ccc(C2CC(C)=Nc3c(ccc4c3C(=O)c3ccccc3C4=O)N2)cc1 (configuration not stated) | 33.3 µM (inactive) | 1.28 µM (inactive) | 27.3 µM (inactive) | > 100 µM (inactive) | 58.1 µM (inactive) | 28.2 µM (inactive) | > 100 µM (inactive) | 3.37 µM (inactive) | 77.3 µM (inactive) | 89.1 µM (inactive) | > 20 µM (inactive) | 28.2 µM (inactive) | > 52.4 µM (inactive) | > 29.6 µM (inactive) | 59.7 µM (inactive) | 14.8 µM (inactive) | – | – | – | –
O=c1[nH]c(=S)c2cc3c(=S)[nH]c(=O)n(CCO)c3nc2n1CCO | > 100 µM (inactive) | > 100 µM (inactive) | > 100 µM (inactive) | > 100 µM (inactive) | > 100 µM (inactive) | > 100 µM (inactive) | – | > 100 µM (inactive) | > 100 µM (inactive) | > 100 µM (inactive) | > 100 µM (inactive) | > 100 µM (inactive) | > 100 µM (inactive) | > 100 µM (inactive) | – | > 100 µM (inactive) | > 100 µM (inactive) | > 100 µM (inactive) | > 100 µM (inactive) | –
CN(C)c1ccc(/C=N/c2ccc(-c3nc4ccccc4s3)cc2)cc1 | 10.2 µM (inactive) | 0.578 µM (active) | 24.6 µM (inactive) | 20.8 µM (inactive) | 24.5 µM (inactive) | 22.4 µM (inactive) | 32.5 µM (inactive) | 24.9 µM (inactive) | 41.1 µM (inactive) | 31.6 µM (inactive) | 18.1 µM (inactive) | 39.5 µM (inactive) | 25.6 µM (inactive) | 22.9 µM (inactive) | 8.59 µM (inactive) | 26.3 µM (inactive) | < 0.01 µM (active) | – | 20 µM (inactive) | 35.6 µM (inactive)
CN(CCCNC(=O)c1cn(C)c2c1Cc1ccccc1-2)CCCNC(=O)c1cn(C)c2c1Cc1ccccc1-2 | 11.9 µM (inactive) | 2.74 µM (inactive) | 9.4 µM (inactive) | – | 12.9 µM (inactive) | 2.13 µM (inactive) | 2.32 µM (inactive) | 13 µM (inactive) | 3.81 µM (inactive) | 11.7 µM (inactive) | – | 5.86 µM (inactive) | 21.3 µM (inactive) | 16.7 µM (inactive) | 13.8 µM (inactive) | – | 10.2 µM (inactive) | 13.6 µM (inactive) | – | –
CCOC(=O)N1C(=O)C2C3C=CC(C2C1=O)C1C2C(=O)N(C(=O)OCC)C(=O)C2C31 (configuration not stated) | > 100 µM (inactive) | > 93.1 µM (inactive) | > 100 µM (inactive) | > 100 µM (inactive) | > 100 µM (inactive) | > 100 µM (inactive) | > 100 µM (inactive) | > 100 µM (inactive) | > 100 µM (inactive) | > 100 µM (inactive) | > 100 µM (inactive) | > 100 µM (inactive) | > 100 µM (inactive) | > 100 µM (inactive) | > 100 µM (inactive) | > 92 µM (inactive) | – | – | – | –
CC(=O)NNc1nc(C)c(C(=O)/C=C/c2ccc(Cl)cc2)s1 | > 100 µM (inactive) | > 100 µM (inactive) | 57.7 µM (inactive) | > 100 µM (inactive) | > 100 µM (inactive) | > 100 µM (inactive) | > 100 µM (inactive) | > 100 µM (inactive) | – | > 100 µM (inactive) | > 100 µM (inactive) | > 100 µM (inactive) | > 100 µM (inactive) | > 100 µM (inactive) | > 100 µM (inactive) | > 100 µM (inactive) | – | – | – | –
CCC(=O)O[C@H]1CC[C@H]2[C@@H]3CCC4=C/C(=N/OC(=O)c5cccc6c(=O)c7ccccc7[nH]c56)CC[C@]4(C)[C@H]3CC[C@]12C | 27.1 µM (inactive) | 14 µM (inactive) | 8.53 µM (inactive) | 21.3 µM (inactive) | 32.1 µM (inactive) | 30.8 µM (inactive) | 27.3 µM (inactive) | 22.9 µM (inactive) | 24.7 µM (inactive) | – | 18.6 µM (inactive) | 29.9 µM (inactive) | 19.9 µM (inactive) | 31.6 µM (inactive) | 28.8 µM (inactive) | 54.6 µM (inactive) | 20.9 µM (inactive) | 88.3 µM (inactive) | 29.9 µM (inactive) | –
COCc1nc2c(OC)c(-c3nc4ccc(N5CCN(C)CC5)nc4[nH]3)cc(OC)c2n1C | – | 21 µM (inactive) | 21 µM (inactive) | 14.4 µM (inactive) | 42.3 µM (inactive) | > 100 µM (inactive) | 19.9 µM (inactive) | 24 µM (inactive) | 21.3 µM (inactive) | 19.4 µM (inactive) | 27.4 µM (inactive) | 33.9 µM (inactive) | 18.7 µM (inactive) | 22 µM (inactive) | 20.7 µM (inactive) | 18.5 µM (inactive) | – | 17.7 µM (inactive) | 38.6 µM (inactive) | 37.7 µM (inactive)
O=C1c2ccccc2-c2nc3ccncc3n21 | – | > 100 µM (inactive) | > 100 µM (inactive) | > 100 µM (inactive) | > 100 µM (inactive) | > 100 µM (inactive) | > 100 µM (inactive) | > 100 µM (inactive) | – | > 100 µM (inactive) | > 100 µM (inactive) | > 100 µM (inactive) | > 100 µM (inactive) | > 100 µM (inactive) | > 100 µM (inactive) | > 100 µM (inactive) | > 100 µM (inactive) | – | – | 51.5 µM (inactive)
CC(C)Oc1c(-c2ccc(F)cc2)c(O)c2c3c1oc(=O)n3C=CC2C (configuration not stated) | 15 µM (inactive) | 11 µM (inactive) | 14.3 µM (inactive) | 13.4 µM (inactive) | 14.8 µM (inactive) | 13.9 µM (inactive) | 16.6 µM (inactive) | 13.2 µM (inactive) | 15.1 µM (inactive) | 22.3 µM (inactive) | 12.1 µM (inactive) | 15.8 µM (inactive) | 6.27 µM (inactive) | 17.8 µM (inactive) | 14.6 µM (inactive) | 14.8 µM (inactive) | 11.3 µM (inactive) | 14.4 µM (inactive) | – | 13.1 µM (inactive)
CN(C)CCCN1c2ccc([N+](=O)[O-])cc2CCc2cc([N+](=O)[O-])ccc21 | – | – | 14.1 µM (inactive) | 9.84 µM (inactive) | 16 µM (inactive) | 5.26 µM (inactive) | 14.8 µM (inactive) | 14.8 µM (inactive) | 16.7 µM (inactive) | 10.3 µM (inactive) | 16.9 µM (inactive) | 15.5 µM (inactive) | 20.4 µM (inactive) | 20.7 µM (inactive) | 13.5 µM (inactive) | 12.3 µM (inactive) | – | 15.9 µM (inactive) | 15.6 µM (inactive) | 16.6 µM (inactive)
CC(C)C1COC(c2ccc3ccccc3c2-c2c(O[Si](C)(C)C(C)(C)C)ccc3ccccc23)=N1 (configuration not stated) | 19.2 µM (inactive) | 18.1 µM (inactive) | 19.1 µM (inactive) | 15.1 µM (inactive) | 18.8 µM (inactive) | 13.6 µM (inactive) | 15.5 µM (inactive) | 17.9 µM (inactive) | 15.8 µM (inactive) | 18.4 µM (inactive) | 15.2 µM (inactive) | 18 µM (inactive) | 14.7 µM (inactive) | 16.1 µM (inactive) | 15.8 µM (inactive) | 17.9 µM (inactive) | – | – | – | –
CN(CCN(C)C(=O)CCOS(C)(=O)=O)C(=O)CCOS(C)(=O)=O | > 100 µM (inactive) | 24.3 µM (inactive) | > 100 µM (inactive) | > 100 µM (inactive) | 59 µM (inactive) | > 100 µM (inactive) | > 100 µM (inactive) | > 100 µM (inactive) | > 100 µM (inactive) | > 100 µM (inactive) | > 100 µM (inactive) | > 100 µM (inactive) | > 100 µM (inactive) | > 100 µM (inactive) | 43.5 µM (inactive) | > 100 µM (inactive) | – | – | – | –
CC(=O)Nc1ccc(/N=N\c2c(O)c(S(=O)(=O)O)cc3cc(S(=O)(=O)O)ccc23)cc1 | – | – | > 100 µM (inactive) | – | > 100 µM (inactive) | > 100 µM (inactive) | > 100 µM (inactive) | > 100 µM (inactive) | > 100 µM (inactive) | > 100 µM (inactive) | > 100 µM (inactive) | > 100 µM (inactive) | > 100 µM (inactive) | > 100 µM (inactive) | > 100 µM (inactive) | > 100 µM (inactive) | – | > 100 µM (inactive) | > 100 µM (inactive) | > 100 µM (inactive)
O=C(c1ccc(-c2ccccc2)cc1)N(Cc1cccnc1)C(=S)N(Cc1cccnc1)C(=O)c1ccc(-c2ccccc2)cc1 | > 100 µM (inactive) | > 100 µM (inactive) | > 100 µM (inactive) | > 100 µM (inactive) | > 100 µM (inactive) | 8.95 µM (inactive) | 48.5 µM (inactive) | 56.6 µM (inactive) | 81.3 µM (inactive) | > 100 µM (inactive) | > 100 µM (inactive) | > 100 µM (inactive) | 3.56 µM (inactive) | > 100 µM (inactive) | > 100 µM (inactive) | – | 41.6 µM (inactive) | > 100 µM (inactive) | – | > 100 µM (inactive)
